US20210341448A1, “SCREENING METHOD FOR THERAPEUTIC DRUG OR PROPHYLACTIC DRUG FOR TAUOPATHY AND DIAGNOSTIC METHOD FOR TAUOPATHY” (National Center for Geriatrics and Gerontology, priority 2018, published 2021)

How the values were obtained:
[1] = tested on: brain slice specimen (hippocampus/entorhinal cortex complex); experiment: Measurement of synapse transmission efficiency (fiber-volley/fEPSP) in brain slice specimens; settings: aging mouse brain slice exposed to 10 μg/ml for 2 to 3 hours, vs aCSF negative control; p<0.0001
Experimental: Brain slice specimens from mice were prepared by the following procedure to evaluate impacts by the tau oligomer on synapse transmission efficiency. 20- to 23-month-old C57BL/6 mice (C57BL/6J or C57BL/6N, male) were cervically dislocated and decapitated to isolate the brain. The obtained brain was thoroughly cooled in aCSF (124 mM of NaCl, 3 mM of KCl, 26 mM of NaHCO3, 1.25 mM of NaH2PO4, 2 mM of CaCl2, 1 mM of MgSO4, 10 mM of D-glucose) bubbled with a 95% O2/5% CO2 mixed gas, then dissected at the center of the cerebrum along the coronal plane, and further the dissected posterior site of the brain was sliced along the horizontal cross sections to a thickness of 350 μm using a vibratome (Leica, VT-1200S). […]
The brain slice specimen was moved to a measurement chamber through which aCSF was perfused, and electric pulse stimulation of 1.5, 2, 3, or 4 nA was applied to record induced potential changes for the measurement of synapse strength from […]. […] The recorded waveform was analyzed using a self-made analysis software to calculate an amplitude of fiber-volley and an amplitude of excitatory postsynaptic potential (fEPSP) at each electric pulse stimulation.

[2] = tested on: postsynaptic NMDAR and AMPAR; experiment: Western blot of NMDA and AMPA receptor amounts on the synapse, brain slices of tau knockout mice; settings: tau knockout mouse brain slice
Experimental: The brain slice specimens were frozen and disrupted in a 50-fold volume of homogenizing buffer (4 mM of HEPES, 2 mM of EGTA, 0.32 M of sucrose, pH 7.4) using a Teflon® homogenizer. The disrupted tissue solution was centrifuged at 4° C., 1,000×g for 15 minutes to thereby collect the supernatant, and the supernatant was further centrifuged at 4° C., 12,000×g for 15 minutes to thereby collect membrane fractions (pellets). The obtained membrane fractions were dissolved in tris-buffered saline containing 0.5% Triton X-100 (50 mM of Tris, 500 mM of NaCl, pH 7.4) and were centrifuged at 4° C., 20,000×g for 15 minutes. The supernatant was used as a 0.5% Triton X-100-soluble membrane fraction sample and the pellet was used as a 0.5% Triton X-100-insoluble membrane fraction sample. The western blot was carried out on the 0.5% Triton X-100-insoluble membrane fraction sample to quantify the AMPA receptor (GluA2 subunit) and the NMDA receptors (NR2a and NR2b subunits). The antibodies used were an anti-Glu2 antibody (Alomone Labs, #AGC-073) (1:1000 dilution), an anti-NR2A antibody (Alomone Labs, #AGC-002) (1:1000 dilution), and an anti-NR2B antibody (Alomone Labs, #AGC-003) (1:1000 dilution).
In the tau knockout mice, the reduction of NMDARs and AMPARs on the synapse by the exposure of the tau oligomer sample was not observed.

[3] = tested on: NT2-N cells; experiment: Adhesion activity of tau oligomers to NT2-N cell surface (fluorescence microscopy); format: cell-based, human; settings: on ice 30 minutes, no membrane permeabilization
Experimental: Cal-520 AM was loaded to the NT2-N cells prepared in the above (4-1) by the procedure of the above (4-2), exposed to the tau oligomer sample (10 μl/ml) prepared in the above (1-3) and incubated on ice for 30 minutes. Subsequently, the cells were washed 3 times with DPBS(−) (137 mM of NaCl, 2.68 mM of KCl, 1.47 mM of KH2PO4, 8.06 mM of Na2HPO4) and fixed with 4% paraformaldehyde at room temperature for 15 minutes. After thorough washing with DPBS(−) (10 minutes×3 times), blocking was done with 1% BSA and 3% donkey serum/DPBS for 30 minutes. Then, the anti-phosphorylated tau antibody (anti-pTau (paired pS409, pS412, pS413), AnaSpec, #AS-55416) (1:1500 dilution) as the primary antibody was reacted at room temperature for 1 hour, and Alexa594-labelled anti-mouse IgG (Jackson Immuno Research, #711-585-152) (1:1500 dilution) as a secondary antibody was reacted at room temperature for 30 minutes, to thereby carry out immunostaining. The stained cells were observed using a fluorescence microscope (BZ-X710, Keyence Corporation).
The HT-tau oligomer sample prepared in the above (1-4), instead of the tau oligomer sample prepared in the above (1-3), was exposed to the NT2-N cells by the same procedure as in the above (5-1). After thorough washing, fluorescence microscopic observation was carried out.

tau oligomer: polymer of human tau 2N4R monomers, polymerized with mouse brain extract and ATP, collected as pellets
synapse transmission efficiency (fiber-volley/fEPSP ratio) [1]: significantly reduced
reduction of AMPARs on the synapse [2]: not observed
reduction of NMDARs on the synapse [2]: not observed
adhesion to the cell surface [3]: adhered in a patchy pattern
